Measurements from patent US20250009694A1, “METHODS AND PHARMACEUTICAL COMPOSITIONS FOR REPAIRING INTESTINAL MUCOSAL” (INSTITUT NATIONAL DE LA SANTÉ ET DE LA RECHERCHE MÉDICALE, priority 2021, published 2025).

Test system: DSS-colitis in WT mice
Experiment: DSS-induced acute colitis in WT C57BL/6 mice after pre-treatment
Type: in vivo, mouse
Conditions: CEA alone, Pan alone or coadministration

Row | Compound | influence on DSS-colitis, single or combined administration
1 | NCCS [CEA, 2-aminoethanethiol] | poor influence
2 | CC(C)(CO)[C@@H](O)C(=O)NCCC(=O)O [Pan, 3-[(2R)-(2,4-Dihydroxy-3,3-dimethylbutanoyl)amino]propanoic acid] | delayed colitis development
